Data from ChEMBL document CHEMBL1201862, “PubChem BioAssay data set” (2004).
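Dose response: 5 concentrations. Exposure: 48 h. Format: 96-well plates. Endpoint: linear interpolation; highest concentration if not reached. Abbreviation: GI50, concentration required for 50% inhibition of growth.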 The source made the active and inactive calls. Rule as the data show it: active = GI50 up to about 1.1 µM and inactive = higher.

Assays:
Experiment in all cases: DTP human tumour cell line panel, 48 h
K562 = system: K562
786-0 = system: 786-0
T47D = system: T47D
UO-31 = system: UO-31
HCT-116 = system: HCT-116
BT-549 = system: BT-549
ACHN = system: ACHN
SNB-19 = system: SNB-19
SR = system: SR
A549 = system: A549
SK-MEL-5 = system: SK-MEL-5
UACC-257 = system: UACC-257
NCI-H460 = system: NCI-H460
SF-268 = system: SF-268
MCF7 = system: MCF7
U-251 = system: U-251
NCI-H23 = system: NCI-H23
NCI-H522 = system: NCI-H522
MOLT-4 = system: MOLT-4
HOP-62 = system: HOP-62
M14 = system: M14
DU-145 = system: DU-145
PC-3 = system: PC-3
EKVX = system: EKVX
A498 = system: A498
SW-620 = system: SW-620
CAKI-1 = system: CAKI-1
RXF 393 = system: RXF 393
SF-539 = system: SF-539
OVCAR-4 = system: OVCAR-4
CCRF-CEM = system: CCRF-CEM
HL-60 = system: HL-60
HCT-15 = system: HCT-15
HT-29 = system: HT-29
NCI-H226 = system: NCI-H226
SK-OV-3 = system: SK-OV-3
UACC-62 = system: UACC-62
RPMI-8226 = system: RPMI-8226
OVCAR-5 = system: OVCAR-5
OVCAR-3 = system: OVCAR-3
Malme-3M = system: Malme-3M
SK-MEL-2 = system: SK-MEL-2
HCC 2998 = system: HCC 2998
Hs-578T = system: Hs-578T
COLO 205 = system: COLO 205
NCI/ADR-RES = system: NCI/ADR-RES
IGROV-1 = system: IGROV-1
KM12 = system: KM12
SN12C = system: SN12C
MDA-MB-435 = system: MDA-MB-435
HOP-92 = system: HOP-92
MDA-N = system: MDA-N
SK-MEL-28 = system: SK-MEL-28
MDA-MB-231 = system: MDA-MB-231
SF-295 = system: SF-295
OVCAR-8 = system: OVCAR-8
LOX IMVI = system: LOX IMVI

With `CC[C@@]1(O)C(=O)OCc2c1cc1n(c2=O)Cc2c-1nc1ccccc1c2/C=N\c1ccc(N[C@@H]2c3cc4c(cc3[C@@H](c3cc(OC)c(O)c(OC)c3)[C@H]3C(=O)OC[C@@H]32)OCO4)cc1` the GI50 (K562) was 0.0585 µM (active), the GI50 (786-0) was < 0.0104 µM (active) and the GI50 (T47D) was < 0.014 µM (active). For the same compound, the GI50 (UO-31) was 0.0403 µM (active), the GI50 (HCT-116) was 0.033 µM (active) and the GI50 (BT-549) was 0.11 µM (active). For the same compound, the GI50 (ACHN) was < 0.01 µM (active), the GI50 (SNB-19) was 0.0446 µM (active) and the GI50 (SR) was < 0.01 µM (active). For the same compound, the GI50 (A549) was 0.038 µM (active), the GI50 (SK-MEL-5) was 0.0315 µM (active) and the GI50 (UACC-257) was 0.315 µM (active). For the same compound, the GI50 (NCI-H460) was < 0.01 µM (active), the GI50 (SF-268) was < 0.0185 µM (active) and the GI50 (MCF7) was < 0.01 µM (active). For the same compound, the GI50 (U-251) was 0.171 µM (active), the GI50 (NCI-H23) was 0.0198 µM (active) and the GI50 (NCI-H522) was 0.0427 µM (active). The GI50 (MOLT-4) was < 0.01 µM (active), the GI50 (HOP-62) was < 0.0136 µM (active) and the GI50 (M14) was 0.0194 µM (active). The GI50 (DU-145) was < 0.01 µM (active).

With `c1cc(NC2=NCCO2)c2c(c1)OCO2` the GI50 (PC-3) was > 100 µM (inactive), the GI50 (K562) was > 100 µM (inactive) and the GI50 (EKVX) was > 100 µM (inactive). The GI50 (A498) was > 100 µM (inactive), the GI50 (SW-620) was > 100 µM (inactive) and the GI50 (786-0) was > 100 µM (inactive). For the same compound, the GI50 (T47D) was > 100 µM (inactive), the GI50 (UO-31) was > 100 µM (inactive) and the GI50 (HCT-116) was > 100 µM (inactive). The GI50 (CAKI-1) was > 100 µM (inactive), the GI50 (RXF 393) was > 100 µM (inactive) and the GI50 (SF-539) was > 100 µM (inactive). For the same compound, the GI50 (ACHN) was > 100 µM (inactive), the GI50 (OVCAR-4) was > 100 µM (inactive) and the GI50 (CCRF-CEM) was > 100 µM (inactive). The GI50 (HL-60) was > 100 µM (inactive), the GI50 (SNB-19) was > 100 µM (inactive) and the GI50 (HCT-15) was greater than 100 µM. For the same compound, the GI50 (HT-29) was > 100 µM (inactive), the GI50 (NCI-H226) was > 100 µM (inactive) and the GI50 (SK-OV-3) was > 100 µM (inactive). The GI50 (UACC-62) was > 100 µM (inactive), the GI50 (RPMI-8226) was > 100 µM (inactive) and the GI50 (OVCAR-5) was > 100 µM (inactive). The GI50 (SR) was > 100 µM (inactive), the GI50 (OVCAR-3) was > 100 µM (inactive) and the GI50 (A549) was > 100 µM (inactive). For the same compound, the GI50 (Malme-3M) was > 100 µM (inactive), the GI50 (SK-MEL-2) was > 100 µM (inactive) and the GI50 (HCC 2998) was > 100 µM (inactive). The GI50 (SK-MEL-5) was > 100 µM (inactive), the GI50 (UACC-257) was > 100 µM (inactive) and the GI50 (Hs-578T) was > 100 µM (inactive). For the same compound, the GI50 (COLO 205) was > 100 µM (inactive), the GI50 (NCI-H460) was > 100 µM (inactive) and the GI50 (SF-268) was > 100 µM (inactive). For the same compound, the GI50 (NCI/ADR-RES) was > 100 µM (inactive), the GI50 (IGROV-1) was > 100 µM (inactive) and the GI50 (MCF7) was > 100 µM (inactive). For the same compound, the GI50 (U-251) was > 100 µM (inactive), the GI50 (KM12) was 80.2 µM (inactive) and the GI50 (NCI-H23) was > 100 µM (inactive). The GI50 (SN12C) was > 100 µM (inactive), the GI50 (NCI-H522) was > 100 µM (inactive) and the GI50 (MOLT-4) was > 100 µM (inactive). For the same compound, the GI50 (HOP-62) was > 100 µM (inactive), the GI50 (MDA-MB-435) was > 100 µM (inactive) and the GI50 (M14) was > 100 µM (inactive). For the same compound, the GI50 (HOP-92) was > 100 µM (inactive), the GI50 (MDA-N) was > 100 µM (inactive) and the GI50 (SK-MEL-28) was > 100 µM (inactive). The GI50 (MDA-MB-231) was > 100 µM (inactive), the GI50 (SF-295) was > 100 µM (inactive) and the GI50 (DU-145) was > 100 µM (inactive). The GI50 (OVCAR-8) was > 100 µM (inactive) and the GI50 (LOX IMVI) was > 100 µM (inactive).
